# Laboratory results published in ChEMBL document CHEMBL1201862, “PubChem BioAssay data set” (2004).
#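 Tested at 5 concentrations; 48 h exposure; 96-well plates; endpoints linearly interpolated, else capped at highest concentration. GI50 = concentration required for 50% inhibition of growth.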 Calls of active or inactive are those of the source. Rule as the data show it: active = GI50 up to about 1.1 µM and inactive = higher.
# Key:
# Assay in all cases: NCI anticancer screen, dose series, 48 h
# RXF 393 = system: RXF 393
# SK-MEL-2 = system: SK-MEL-2
# KM12 = system: KM12
# OVCAR-4 = system: OVCAR-4
# Malme-3M = system: Malme-3M
# K562 = system: K562
# CAKI-1 = system: CAKI-1
# SK-MEL-28 = system: SK-MEL-28
# DMS-273 = system: DMS-273
# HOP-18 = system: HOP-18
# DLD-1 = system: DLD-1
# NCI-H23 = system: NCI-H23
# SF-539 = system: SF-539
# UO-31 = system: UO-31
# ACHN = system: ACHN
# HT-29 = system: HT-29
# UACC-62 = system: UACC-62
# OVCAR-5 = system: OVCAR-5
# HOP-92 = system: HOP-92
# 786-0 = system: 786-0
# M19-MEL = system: M19-MEL
# UACC-257 = system: UACC-257
# M14 = system: M14
# LOX IMVI = system: LOX IMVI
# RXF 631 = system: RXF 631
# NCI-H522 = system: NCI-H522
# NCI-H226 = system: NCI-H226
# IGROV-1 = system: IGROV-1
# CCRF-CEM = system: CCRF-CEM
# LXFL 529 = system: LXFL 529
# A498 = system: A498
# SF-295 = system: SF-295
# KM-20L2 = system: KM-20L2
# OVCAR-3 = system: OVCAR-3
# HL-60 = system: HL-60
# MOLT-4 = system: MOLT-4
# NCI-H460 = system: NCI-H460
# SK-MEL-5 = system: SK-MEL-5
# DMS-114 = system: DMS-114
# HCC 2998 = system: HCC 2998
# COLO 205 = system: COLO 205
# A549 = system: A549
# SNB-19 = system: SNB-19
# SW-620 = system: SW-620
# SK-OV-3 = system: SK-OV-3
# EKVX = system: EKVX
# HCT-15 = system: HCT-15
# SNB-75 = system: SNB-75
# TK-10 = system: TK-10
# HCT-116 = system: HCT-116
# SF-268 = system: SF-268
# XF498 = system: XF498
# U-251 = system: U-251
# RPMI-8226 = system: RPMI-8226
# SNB-78 = system: SNB-78
# HOP-62 = system: HOP-62
# SN12C = system: SN12C
# OVCAR-8 = system: OVCAR-8
# SR = system: SR
compound,measurement,setting,value
O=C(N/N=C(\c1nc2ccc(Cl)cc2nc1O)C(O)c1ccccc1Cl)c1ccncc1 (centres undefined),GI50,RXF 393,> 100 µM (inactive)
same,GI50,SK-MEL-2,> 100 µM (inactive)
same,GI50,KM12,> 100 µM (inactive)
same,GI50,OVCAR-4,> 100 µM (inactive)
same,GI50,Malme-3M,> 100 µM (inactive)
same,GI50,K562,> 100 µM (inactive)
same,GI50,CAKI-1,> 100 µM (inactive)
same,GI50,SK-MEL-28,> 100 µM (inactive)
same,GI50,DMS-273,> 100 µM (inactive)
same,GI50,HOP-18,> 100 µM (inactive)
same,GI50,DLD-1,> 100 µM (inactive)
same,GI50,NCI-H23,> 100 µM (inactive)
same,GI50,SF-539,> 100 µM (inactive)
same,GI50,UO-31,> 100 µM (inactive)
same,GI50,ACHN,> 100 µM (inactive)
same,GI50,HT-29,> 100 µM (inactive)
same,GI50,UACC-62,> 100 µM (inactive)
same,GI50,OVCAR-5,> 100 µM (inactive)
same,GI50,HOP-92,> 100 µM (inactive)
same,GI50,786-0,> 100 µM (inactive)
same,GI50,M19-MEL,> 100 µM (inactive)
same,GI50,UACC-257,> 100 µM (inactive)
same,GI50,M14,> 100 µM (inactive)
same,GI50,LOX IMVI,> 100 µM (inactive)
same,GI50,RXF 631,> 100 µM (inactive)
same,GI50,NCI-H522,> 100 µM (inactive)
same,GI50,NCI-H226,> 100 µM (inactive)
same,GI50,IGROV-1,> 100 µM (inactive)
same,GI50,CCRF-CEM,> 100 µM (inactive)
same,GI50,LXFL 529,> 100 µM (inactive)
same,GI50,A498,> 100 µM (inactive)
same,GI50,SF-295,> 100 µM (inactive)
same,GI50,KM-20L2,> 100 µM (inactive)
same,GI50,OVCAR-3,> 100 µM (inactive)
same,GI50,HL-60,> 100 µM (inactive)
same,GI50,MOLT-4,> 100 µM (inactive)
same,GI50,NCI-H460,> 100 µM (inactive)
same,GI50,SK-MEL-5,> 100 µM (inactive)
same,GI50,DMS-114,> 100 µM (inactive)
same,GI50,HCC 2998,> 100 µM (inactive)
same,GI50,COLO 205,> 100 µM (inactive)
same,GI50,A549,> 100 µM (inactive)
same,GI50,SNB-19,> 100 µM (inactive)
same,GI50,SW-620,> 100 µM (inactive)
same,GI50,SK-OV-3,> 100 µM (inactive)
same,GI50,EKVX,> 100 µM (inactive)
same,GI50,HCT-15,> 100 µM
same,GI50,SNB-75,> 100 µM (inactive)
same,GI50,TK-10,> 100 µM (inactive)
same,GI50,HCT-116,> 100 µM (inactive)
same,GI50,SF-268,> 100 µM (inactive)
O=C(Cc1ccccc1)NN1C(=O)C(Cl)C1c1ccccc1O (centres undefined),GI50,RXF 393,36 µM (inactive)
same,GI50,SK-MEL-2,17.8 µM (inactive)
same,GI50,OVCAR-4,8.81 µM (inactive)
same,GI50,Malme-3M,19.5 µM (inactive)
same,GI50,K562,14.4 µM (inactive)
same,GI50,CAKI-1,40.2 µM (inactive)
same,GI50,SK-MEL-28,23.5 µM (inactive)
same,GI50,DMS-273,20.5 µM (inactive)
same,GI50,HOP-18,3.82 µM (inactive)
same,GI50,DLD-1,9.95 µM (inactive)
same,GI50,NCI-H23,20.4 µM (inactive)
same,GI50,XF498,43.6 µM (inactive)
same,GI50,UO-31,4.54 µM (inactive)
same,GI50,ACHN,6.98 µM (inactive)
same,GI50,HT-29,8.05 µM (inactive)
same,GI50,UACC-62,19.5 µM (inactive)
same,GI50,OVCAR-5,15.4 µM (inactive)
same,GI50,U-251,12.8 µM (inactive)
same,GI50,786-0,16.8 µM (inactive)
same,GI50,M19-MEL,19.3 µM (inactive)
same,GI50,UACC-257,11.4 µM (inactive)
same,GI50,RPMI-8226,9.84 µM (inactive)
same,GI50,M14,14.1 µM (inactive)
same,GI50,LOX IMVI,12.1 µM (inactive)
same,GI50,SNB-78,50.7 µM (inactive)
same,GI50,NCI-H522,3.27 µM (inactive)
same,GI50,NCI-H226,10 µM (inactive)
same,GI50,IGROV-1,25.8 µM (inactive)
same,GI50,HOP-62,12.6 µM (inactive)
same,GI50,CCRF-CEM,3.17 µM (inactive)
same,GI50,LXFL 529,24.4 µM (inactive)
same,GI50,SF-295,15.4 µM (inactive)
same,GI50,KM-20L2,4.57 µM (inactive)
same,GI50,OVCAR-3,2.64 µM (inactive)
same,GI50,HL-60,3.21 µM (inactive)
same,GI50,MOLT-4,3.22 µM (inactive)
same,GI50,SN12C,27.9 µM (inactive)
same,GI50,NCI-H460,4.62 µM (inactive)
same,GI50,DMS-114,4.46 µM (inactive)
same,GI50,HCC 2998,20.3 µM (inactive)
same,GI50,COLO 205,16.4 µM (inactive)
same,GI50,A549,21.4 µM (inactive)
same,GI50,SNB-19,16.9 µM (inactive)
same,GI50,SW-620,15.8 µM (inactive)
same,GI50,SK-OV-3,20.3 µM (inactive)
same,GI50,OVCAR-8,22.4 µM (inactive)
same,GI50,EKVX,4.07 µM (inactive)
same,GI50,HCT-15,5.85 µM
same,GI50,SNB-75,34.8 µM (inactive)
same,GI50,TK-10,45.3 µM (inactive)
same,GI50,HCT-116,5.56 µM (inactive)
same,GI50,SR,3.98 µM (inactive)
same,GI50,SF-268,13.5 µM (inactive)
